Key:
[1] = stability to hydrolysis (boiling in deionized water, titration of liberated phosphorous acid); format: physicochemical
Procedure: The stability to hydrolysis was tested according to the process disclosed in DT-OS 2,144,181, pages 7/8. 5.0 g each of the respective phosphite were boiled for 20 and 60 minutes in 100 ml of deionized water. The mixture was then allowed to cool, filtered to remove residues, if any, and in the filtrate the liberated phosphorous acid was titrated with 0.1N KOH against bromophenol blue.
In the following table is indicated the degree of hydrolysis determined under the specified conditions as quotient of the actual consumption of KOH and the theoretically possible consumption with a complete hydrolysis.

[2] = dynamic heat stability (rolling stability) in PVC, discoloration of rough sheet; settings: 180° C, two roll mill, 0.5 part phosphite
Procedure: (§1) The parts in the following description are parts by weight.
(§2) Each time 100 parts of a mass polyvinyl chloride having a K value of 60 were intimately mixed with
0.2 part of 2-phenyl-indole,
3.0 parts of epoxidized soybean oil
0.3 part of stearyl stearate
0.5 part of glycerol monostearate and
(§3) 0.5 part of the respective phosphite of the invention.
To measure the dynamic heat stability (rolling stability) the mixtures were rolled on a two roll mill at 180° C. and with 20 revolutions per minute. At intervals of 10 minutes samples were taken from the rough sheet and the color of the samples was compared with the colors of a proper color chart. Rolling was continued until the rough sheet had turned black.
In the color chart used the individual notes have the following meaning:
4 = dark yellow-brown color

[3] = static heat stability (furnace stability) in PVC, time until black coloration; settings: heating cabinet with air circulation, 0.5 part phosphite
Procedure: as §1, §2
0.2 part of 2-phenyl-indole,
3.0 parts of epoxidized soybean oil
0.3 part of stearyl stearate
0.5 part of glycerol monostearate and
as §3
In order to measure the static heat stability (furnace stability) a rough sheet was prepared as described above and the sheet was rolled for a further 10 minutes at 180° C. Flat samples having a diameter of about 30 mm were punched out of the rough sheet removed from the mill and having a thickness of about 0.5 mm, the samples were wrapped in aluminum foil and heated to 180° C. in a heating cabinet with air circulation. At intervals of 10 minutes each a sample was taken from the cabinet and the color thereof was compared with that of the color chart.

[4] = 20 minutes boiling in deionized water
[5] = 60 minutes boiling in deionized water
[6] = boiling deionized water, 20 min

Compound	degree of hydrolysis after 20 minutes [1, 4]	dynamic (rolling) stability, discoloration of rough sheet after a rolling time of 10' [2]	dynamic (rolling) stability, discoloration of rough sheet after a rolling time of 20' [2]	dynamic (rolling) stability, discoloration of rough sheet after a rolling time of 30' [2]	dynamic (rolling) stability, discoloration of rough sheet after a rolling time of 40' [2]	dynamic (rolling) stability, discoloration of rough sheet after a rolling time of 50' [2]	degree of hydrolysis after 60 minutes [1, 5]	static (furnace) stability, black coloration at 180° C after [3]	dynamic (rolling) stability, discoloration of rough sheet after a rolling time of 60' [2]	dynamic (rolling) stability, discoloration of rough sheet after a rolling time of 70' [2]	dynamic (rolling) stability, discoloration of rough sheet after a rolling time of 80' [2]	degree of hydrolysis after 20 minutes [1, 6]	degree of hydrolysis after 60 minutes ([1]; boiling deionized water, 1 h)
Tristearyl-sorbityl diphosphite monophosphate [Example 25]	9 % of theory												
trisnonylphenyl phosphite [reference compound]	57 % of theory	1	2	2-3	3	5	92 % of theory	40 '					
CCCCCCCCCCCCCCCCCCOP1OCC2(CO1)COP(OCCCCCCCCCCCCCCCCCC)OC2 (stereo not drawn) [distearyl-pentaerthrityl-diphosphite, distearyl-pentaerythritol diphosphite, reference compound]	55 % of theory	2-3	2-3	3	3	4	68 % of theory	50 '	5				
distearyl-sorbityl diphosphite [Example 10]		1	1-2	2	3	4		60 '	5				
c1ccc(OP(Oc2ccccc2)Oc2ccccc2)cc1 [triphenyl phosphite, reference compound]	84 % of theory	1	2	2-3	5		100 % of theory	50 '					
Tri-behenyl-sorbityl triphosphite [Example 4]		1	1-2	2	2	3			3	4	5	10 % of theory	
Tri-behenyl-mannityl triphosphite [Example 5]		1	1-2	2	2	3			3	4	5	7 % of theory	23 % of theory
Tri-stearyl-sorbityl triphosphite [Example 1]		1	1-2	2	2-3	3			3	4	4	7 % of theory	17 % of theory
distearyl-monododecyl-mercapto-sorbityl triphosphite [Example 23]		2	3	3	3	3-4		60 '	4	5			
Tri-stearyl-dulcityl-triphosphite [Example 3]		1	1-2	2	3	4		60 '	5				
Tri-stearyl-mannityl-triphosphite [Example 2]		1	1-2	2	2-3	3			3	4	4	5 % of theory	10 % of theory
Di-behenyl-erythrityl diphosphite [Example 8]		1	1-2	1-2	2	3		60 '	4	5		7 % of theory	11 % of theory
